Measured values published in paper PMC4165196, “Curcumin, a Natural Antioxidant, Acts as a Noncompetitive Inhibitor of Human RNase L in Presence of Its Cofactor 2-5A In Vitro” (BioMed Research International, 2014).

Target: T1, human RNase L (Homo sapiens, UniProt Q05823)
T1 construct: gene RNASEL; full-length (741 a.a.) recombinant human RNase L, GST-RNase L fusion protein
T1 sequence (Q05823 1-741): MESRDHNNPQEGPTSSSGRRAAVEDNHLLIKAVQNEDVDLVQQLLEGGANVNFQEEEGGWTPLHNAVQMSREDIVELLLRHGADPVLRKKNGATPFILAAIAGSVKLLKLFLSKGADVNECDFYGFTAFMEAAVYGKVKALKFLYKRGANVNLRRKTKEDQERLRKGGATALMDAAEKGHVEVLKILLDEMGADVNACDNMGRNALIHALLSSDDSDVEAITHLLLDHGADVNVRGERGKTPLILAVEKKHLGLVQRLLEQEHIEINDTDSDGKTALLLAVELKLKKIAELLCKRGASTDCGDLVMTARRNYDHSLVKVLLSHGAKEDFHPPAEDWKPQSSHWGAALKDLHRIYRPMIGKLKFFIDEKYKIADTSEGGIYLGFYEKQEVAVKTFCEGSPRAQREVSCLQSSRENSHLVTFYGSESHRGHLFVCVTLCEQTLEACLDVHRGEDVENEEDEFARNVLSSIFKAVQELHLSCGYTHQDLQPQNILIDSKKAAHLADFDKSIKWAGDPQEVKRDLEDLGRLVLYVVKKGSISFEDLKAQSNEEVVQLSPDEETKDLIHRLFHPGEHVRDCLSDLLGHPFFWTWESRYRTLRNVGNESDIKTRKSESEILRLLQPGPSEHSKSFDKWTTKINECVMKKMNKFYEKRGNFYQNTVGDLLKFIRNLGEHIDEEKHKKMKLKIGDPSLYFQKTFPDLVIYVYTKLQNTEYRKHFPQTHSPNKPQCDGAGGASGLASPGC
Experiment: intrinsic fluorescence quenching titration (Hill fit); also noncompetitive inhibition of purified GST-RNase L RNA degradation with […]-5A, Ki […], biphasic dose response
Type: binding

COc1cc(/C=C/C(=O)CC(=O)/C=C/c2ccc(O)c(OC)c2)ccc1O [curcumin, 1,7-bis-[4 hydroxy-3-methoxy]-1,6 heptadiene-3,5-dione]
Kd: 397 ± 18 nM
